Laboratory results reported in ChEMBL document CHEMBL3352422, “Imidazo[2,1-b]thiazole derivatives as new inhibitors of 15-lipoxygenase” (Eur J Med Chem, 2014).
Activity calls are given as the source filed them. No cut-off for these calls is given here.

Experiments:
[1] = Toxicity in rat PC12 cells at 1 to 10 uM after 24 hrs by MTT assay; format: cell-based; conditions: pc-12, 24 h
[2] = Inhibition of soybean 15-LOX incubated for 4 mins before linoleic acid substrate addition by spectrophotometry; design: species or system Glycine max
[3] = system: PC-12; test: Cytoprotective activity against rat PC12 cells assessed as protection against H2O2-induced cell death at 1 to 10 uM pre-treated 3 hrs before H2O2 addition and measured 24 hrs post H2O2 challenge by MTT assay; format: functional, cell-based

| SMILES | IC50 ([2]; read-out: IC50) [µM] | other results |
| --- | --- | --- |
| COc1ccc(-c2csc3nc(-c4ccccc4)c(NC(C)(C)CC(C)(C)C)n23)cc1 | 11.5 | Activity [1]: Non-toxic; Activity [3]: Active |
| COc1ccc(-c2nc3scc(-c4ccccc4)n3c2NC(C)(C)C)cc1 | 58 |  |
| CC(C)(C)Nc1c(-c2ccc(Cl)cc2)nc2scc(-c3ccccc3)n12 | 33 |  |
| Brc1ccccc1-c1nc2scc(-c3ccccc3)n2c1NC1CCCCC1 |  | IC50 [2]: Not Active |
| CC(C)(C)CC(C)(C)Nc1c(-c2ccc(Cl)cc2)nc2scc(-c3ccc(Br)cc3)n12 | 20.7 |  |
| O=[N+]([O-])c1ccc(-c2nc3scc(-c4ccccc4)n3c2NC2CCCCC2)cc1 | 737 |  |
| CC(C)(C)CC(C)(C)Nc1c(-c2ccccc2[N+](=O)[O-])nc2scc(-c3ccccc3)n12 | 70 |  |
| CC(C)(C)CC(C)(C)Nc1c(-c2ccc([N+](=O)[O-])cc2)nc2scc(-c3ccc(Br)cc3)n12 | 32 |  |
| Cc1ccc(-c2nc3scc(-c4ccccc4)n3c2NC(C)(C)C)cc1 | 35 |  |
| COc1ccc(-c2nc3scc(-c4ccccc4)n3c2NC2CCCCC2)cc1 | 765 |  |
| O=[N+]([O-])c1ccccc1-c1nc2scc(-c3ccc(Br)cc3)n2c1NC1CCCCC1 | 170 |  |
| Clc1ccc(-c2nc3scc(-c4ccc(Br)cc4)n3c2NC2CCCCC2)cc1 | 52 |  |
| O=c1c(O)c(-c2ccc(O)c(O)c2)oc2cc(O)cc(O)c12 [QUERCETIN] | 23 |  |
| CC(C)(C)Nc1c(-c2ccc([N+](=O)[O-])cc2)nc2scc(-c3ccccc3)n12 | 45 |  |
| Fc1ccccc1-c1nc2scc(-c3ccccc3)n2c1NC1CCCCC1 | 35.4 |  |
